The values below come from patent publication US20100035866A1, “NOVEL SUBSTITUTED-1, 1-DIOXO-BENZO[1,2,4]THIADIAZIN-3ONES, PREPARATION METHOD THEREOF, AND PHARMACEUTICAL COMPOSITION CONTAINING THE SAME” (KOREA RESEARCH INSTITUTE OF CHEMICAL TECHNOLOGY, priority 2006, published 2010).

For one data set, the target named is T1, 5-HT7 (Homo sapiens, UniProt P34969).
T1 construct: purchased Euroscreen/BioSignal Packard Inc
In words: Radioligand binding, 5-HT receptor family: 5-HT7 ([3H]LSD). The following applies: CHO-K1 human recombinant receptor, [3H]LSD 3 nM; read-out: Binding affinity, IC50 (nM), 5-HT7. Put shortly: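 Membranes bearing the receptor, bought in; radioligand displacement run per supplier protocol.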

A further data set relates to mice. Put plainly: Rotarod deficit. The settings on record: mouse, in vivo. As for the experimental part:
The mouse was placed on a 1 inch diameter knurled plastic rod rotating at 6 rpm (Ugo-Basile, Milano, Italy), and the rotarod deficit (%) was obtained by counting the number of animals fallen from the rotating rod within 1 min (Dunham et al., 1957) at 30, 60, 90 and 120 min after the injection of test compound.

Another data set addresses T2, 5-HT1a (Homo sapiens, UniProt P08908).
T2 construct: purchased Euroscreen/BioSignal Packard Inc
T2 sequence (P08908 1-422): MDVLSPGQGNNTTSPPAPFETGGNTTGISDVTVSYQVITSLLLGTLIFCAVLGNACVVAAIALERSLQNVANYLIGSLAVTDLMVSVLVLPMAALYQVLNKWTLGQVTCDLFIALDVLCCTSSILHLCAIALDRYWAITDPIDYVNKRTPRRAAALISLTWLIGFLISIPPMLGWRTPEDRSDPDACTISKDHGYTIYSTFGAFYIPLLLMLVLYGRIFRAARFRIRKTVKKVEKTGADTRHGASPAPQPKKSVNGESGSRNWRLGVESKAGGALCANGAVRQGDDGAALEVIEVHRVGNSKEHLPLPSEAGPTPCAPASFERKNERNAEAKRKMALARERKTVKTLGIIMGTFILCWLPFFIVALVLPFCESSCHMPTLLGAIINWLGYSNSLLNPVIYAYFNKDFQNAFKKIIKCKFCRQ
Put plainly: Radioligand binding, 5-HT receptor family: 5-HT1a ([3H]8-OH-DPAT). The settings on record: CHO-K1 human recombinant receptor, [3H]8-OH-DPAT 0.5 nM; read-out: Binding affinity, IC50 (nM), 5-HT1a.

For the next data set, the target named is T3, hD3 receptor (Homo sapiens, UniProt P35462).
T3 construct: purchased BioSignal Packard Inc., Montreal, Canada
T3 sequence (P35462 whole entry): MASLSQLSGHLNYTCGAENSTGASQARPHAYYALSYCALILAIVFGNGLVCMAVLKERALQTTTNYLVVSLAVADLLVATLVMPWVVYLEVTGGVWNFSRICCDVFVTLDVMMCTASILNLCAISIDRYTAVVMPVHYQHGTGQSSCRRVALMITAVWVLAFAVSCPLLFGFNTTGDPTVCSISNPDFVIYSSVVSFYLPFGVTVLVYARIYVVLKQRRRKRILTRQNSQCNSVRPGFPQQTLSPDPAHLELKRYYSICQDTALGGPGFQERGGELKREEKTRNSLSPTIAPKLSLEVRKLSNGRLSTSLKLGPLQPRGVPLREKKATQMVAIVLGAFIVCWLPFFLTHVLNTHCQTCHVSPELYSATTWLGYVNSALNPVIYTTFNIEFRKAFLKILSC
Put plainly: Dopamine receptor family binding: D3 ([3H]spiperone). The settings on record: [3H]spiperone 1 nM; read-out: Binding affinity, IC50 (nM), D3.

In the next data set the target is T4, hD4.2 receptor (Homo sapiens, UniProt P21917, DEL265-296).
T4 construct: purchased BioSignal Packard Inc., Montreal, Canada
T4 sequence (P21917 with tags, fused parts or gaps DEL265-296): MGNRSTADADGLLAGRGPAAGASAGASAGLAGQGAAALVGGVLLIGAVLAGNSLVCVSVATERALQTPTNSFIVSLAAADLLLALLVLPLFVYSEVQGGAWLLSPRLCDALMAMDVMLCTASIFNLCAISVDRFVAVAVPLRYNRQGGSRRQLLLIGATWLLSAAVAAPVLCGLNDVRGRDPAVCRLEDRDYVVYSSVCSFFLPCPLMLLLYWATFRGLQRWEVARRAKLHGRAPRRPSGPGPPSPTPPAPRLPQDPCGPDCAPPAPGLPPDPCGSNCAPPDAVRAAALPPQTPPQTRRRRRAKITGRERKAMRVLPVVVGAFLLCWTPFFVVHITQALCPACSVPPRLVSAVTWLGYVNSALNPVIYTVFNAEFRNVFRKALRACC
In words: Dopamine receptor family binding: D4 ([3H]YM-09151-2). The following applies: [3H]YM-09151-2 0.06 nM; read-out: Binding affinity, IC50 (nM), D4. Put shortly: (§1)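 Competition binding on human receptor membranes: D2L with [3H]spiperone 1 nM in 50 mM Tris-HCl pH 7.4, 10 mM MgCl2, 1 mM EDTA; D4.2 with [3H]YM-09151-2 0.06 nM in Tris-HCl pH 7.4 with MgCl2, EDTA, KCl, CaCl2. 7-8 concentrations in duplicate, three assays; IC50 by nonlinear regression.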

A further data set addresses T5, hD2L receptor (Homo sapiens, UniProt P14416).
T5 construct: purchased BioSignal Packard Inc., Montreal, Canada
Put plainly: Dopamine receptor family binding: D2 ([3H]spiperone). The following applies: [3H]spiperone 1 nM; read-out: Binding affinity, IC50 (nM), D2. In a few lines:
as §1

The target in another data set is T6, 5-HT2c (Homo sapiens, UniProt P28335).
T6 construct: purchased Euroscreen/BioSignal Packard Inc
T6 sequence (P28335 33-458): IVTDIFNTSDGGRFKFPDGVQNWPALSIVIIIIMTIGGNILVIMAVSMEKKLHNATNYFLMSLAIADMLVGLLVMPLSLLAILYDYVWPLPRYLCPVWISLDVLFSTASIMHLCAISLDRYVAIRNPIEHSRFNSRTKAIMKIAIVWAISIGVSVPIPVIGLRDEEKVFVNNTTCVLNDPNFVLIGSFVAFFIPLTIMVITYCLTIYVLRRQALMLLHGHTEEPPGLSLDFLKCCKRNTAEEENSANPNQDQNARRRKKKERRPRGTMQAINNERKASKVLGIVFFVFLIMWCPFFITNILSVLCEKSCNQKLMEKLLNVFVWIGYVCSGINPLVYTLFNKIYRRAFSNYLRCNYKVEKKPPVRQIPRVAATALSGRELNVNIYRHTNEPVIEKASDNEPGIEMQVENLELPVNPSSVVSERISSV
In words: Radioligand binding, 5-HT receptor family: 5-HT2c ([3H]Mesulergine). The following applies: CHO-K1 human recombinant receptor, [3H]Mesulergine 1 nM; read-out: Binding affinity, IC50 (nM), 5-HT2c.

Data set [1] deals with rats. Put plainly: Apomorphine-induced disruption of prepulse inhibition (PPI) of acoustic startle. The settings on record: for effect on PPI of compound alone vs vehicle control: rats, 2.5, 5, 10 & 20 mg/kg, without apomorphine; for effect on PPI of compound alone vs vehicle control / reversal of disruption of PPI by apomorphine: i.p.; for mean startle amplitude vs apomorphine control group / reversal of disruption of PPI by apomorphine: rats; for mean startle amplitude vs apomorphine control group: administered 30 min before apomorphine; for reversal of disruption of PPI by apomorphine: pretreatment i.p. 30 min before apomorphine 2 mg/kg.

Data set [2] has as its target Human serotonin 5-HT6 receptor (Homo sapiens, UniProt P50406). Put plainly: [3H]LSD binding assay on cloned 5-HT6 receptor. The following applies: IC50 (nM).
For a further data set, the target named is T7, 5-HT2a (Homo sapiens, UniProt P28223).
T7 construct: purchased Euroscreen/BioSignal Packard Inc
T7 sequence (P28223 whole entry): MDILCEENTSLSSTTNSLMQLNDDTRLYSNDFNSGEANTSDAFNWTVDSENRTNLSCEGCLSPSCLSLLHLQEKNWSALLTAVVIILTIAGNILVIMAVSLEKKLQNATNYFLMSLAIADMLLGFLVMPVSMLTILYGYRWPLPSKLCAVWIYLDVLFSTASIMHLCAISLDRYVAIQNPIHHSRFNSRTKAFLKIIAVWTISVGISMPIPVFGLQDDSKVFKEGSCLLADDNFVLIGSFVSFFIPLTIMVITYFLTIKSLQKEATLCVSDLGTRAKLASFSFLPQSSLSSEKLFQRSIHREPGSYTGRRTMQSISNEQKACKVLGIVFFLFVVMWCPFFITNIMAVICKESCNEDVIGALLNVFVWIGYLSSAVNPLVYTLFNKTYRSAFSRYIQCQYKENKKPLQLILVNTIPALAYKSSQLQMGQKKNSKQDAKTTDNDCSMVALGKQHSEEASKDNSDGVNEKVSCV
In words: Radioligand binding, 5-HT receptor family: 5-HT2a ([3H]Ketanserin). The settings on record: CHO-K1 human recombinant receptor, [3H]Ketanserin 1 nM; read-out: Binding affinity, IC50 (nM), 5-HT2a.

Another data set deals with D1 (Homo sapiens, UniProt P21728). In words: Dopamine receptor family binding: D1. The settings on record: read-out: Binding affinity, IC50 (nM), D1.
Chain of D1 (P21728 whole entry): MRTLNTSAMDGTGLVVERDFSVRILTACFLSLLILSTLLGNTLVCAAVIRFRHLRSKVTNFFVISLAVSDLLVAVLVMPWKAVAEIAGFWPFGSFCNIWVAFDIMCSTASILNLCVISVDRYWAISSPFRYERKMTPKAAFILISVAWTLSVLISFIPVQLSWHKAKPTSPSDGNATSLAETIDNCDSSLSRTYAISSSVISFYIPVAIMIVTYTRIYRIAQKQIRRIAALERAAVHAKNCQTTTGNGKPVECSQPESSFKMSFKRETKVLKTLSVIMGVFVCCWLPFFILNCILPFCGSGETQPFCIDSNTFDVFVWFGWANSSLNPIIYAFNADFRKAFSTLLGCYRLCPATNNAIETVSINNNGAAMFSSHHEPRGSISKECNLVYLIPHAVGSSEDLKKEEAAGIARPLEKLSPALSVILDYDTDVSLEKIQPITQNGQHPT
For data set [3], the system named is HeLa cells transfected with the human 5-HT6 receptor. In words: Cytotoxicity in HeLa cells of the cAMP assay. The settings on record: at the concentrations tested (0.001-10 μM). The class given is cell-based.
The target in data set [4] is T8, 5-HT6 receptors (Homo sapiens, UniProt P50406). Put plainly: Adenylyl cyclase activity (cAMP accumulation) in HeLa cells transfected with human 5-HT6 receptor.
T8 sequence (P50406 whole entry): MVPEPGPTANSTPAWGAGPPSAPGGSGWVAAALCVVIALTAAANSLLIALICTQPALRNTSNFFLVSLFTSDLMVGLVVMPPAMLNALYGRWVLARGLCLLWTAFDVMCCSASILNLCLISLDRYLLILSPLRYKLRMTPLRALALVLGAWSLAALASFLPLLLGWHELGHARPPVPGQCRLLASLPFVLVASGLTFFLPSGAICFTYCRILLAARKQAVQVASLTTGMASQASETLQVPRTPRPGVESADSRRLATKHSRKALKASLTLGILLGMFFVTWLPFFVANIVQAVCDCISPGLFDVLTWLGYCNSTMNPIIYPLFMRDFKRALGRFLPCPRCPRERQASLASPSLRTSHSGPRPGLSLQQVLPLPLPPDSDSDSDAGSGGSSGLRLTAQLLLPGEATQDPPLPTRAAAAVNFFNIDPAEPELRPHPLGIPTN
Data set [5] addresses T8, 5-HT6 receptors. The following applies: human 5-HT6 receptors, Glennon et al.; cited from earlier work.
In another data set the test system is rat. The following applies: cited from earlier work; for anticonvulsant activity: earlier finding.
The subject of data set [6] is rats. The following applies: cited from earlier work.
The conditions of data set [7]: frontal cortex and dorsal hippocampus; cited from earlier work.
In data set [8] the test system is rats. The settings on record: cited from earlier work. The source holds these as a separate data set.
The conditions of data set [9]: background art; cited from earlier work.
Data set [10] concerns the target T8, 5-HT6 receptors. The following applies: antipsychotics, Roth et al. 1994; cited from earlier work.
Where [11] appears, read: Binding affinity, 5-HT6, Table 4.
Setting [12] is: binding affinity to the 5-HT6 receptor, Table 2, 1.87 nM [3H]LSD, cloned human receptor membranes from Sf21 cells, 37° C. 60 min.
The mark [13] stands for this setting: HeLa, read-out: inhibition of 0.3 μM serotonin (5-HT)-induced increase in cAMP levels.

Chain of Human serotonin 5-HT6 receptor (P50406 whole entry): as above
T5 sequence (P14416 whole entry): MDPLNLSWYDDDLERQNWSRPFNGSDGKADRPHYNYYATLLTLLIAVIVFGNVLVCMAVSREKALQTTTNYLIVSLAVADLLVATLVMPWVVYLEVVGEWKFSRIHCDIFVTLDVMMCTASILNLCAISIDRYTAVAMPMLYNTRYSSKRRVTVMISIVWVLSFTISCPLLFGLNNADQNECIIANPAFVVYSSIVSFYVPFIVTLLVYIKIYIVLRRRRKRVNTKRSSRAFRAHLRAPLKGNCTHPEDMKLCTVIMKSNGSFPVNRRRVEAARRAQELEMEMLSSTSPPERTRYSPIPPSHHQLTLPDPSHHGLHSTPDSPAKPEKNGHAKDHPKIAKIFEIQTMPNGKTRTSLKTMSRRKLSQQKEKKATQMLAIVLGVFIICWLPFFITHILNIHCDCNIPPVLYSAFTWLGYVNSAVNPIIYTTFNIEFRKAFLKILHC
T1 sequence (P34969 whole entry): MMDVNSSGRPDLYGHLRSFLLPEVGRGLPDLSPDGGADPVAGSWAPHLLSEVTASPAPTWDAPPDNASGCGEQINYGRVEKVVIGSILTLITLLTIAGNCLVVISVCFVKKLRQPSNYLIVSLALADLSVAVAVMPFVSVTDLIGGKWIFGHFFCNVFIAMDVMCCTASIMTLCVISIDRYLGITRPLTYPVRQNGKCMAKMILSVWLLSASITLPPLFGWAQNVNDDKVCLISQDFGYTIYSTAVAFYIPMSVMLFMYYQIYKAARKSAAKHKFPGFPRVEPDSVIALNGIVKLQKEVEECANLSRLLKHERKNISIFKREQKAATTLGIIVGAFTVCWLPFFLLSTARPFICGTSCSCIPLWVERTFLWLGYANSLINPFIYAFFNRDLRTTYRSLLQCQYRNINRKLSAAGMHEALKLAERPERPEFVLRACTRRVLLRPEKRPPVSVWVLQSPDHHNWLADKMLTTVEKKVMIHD

Take `CN1CCN(c2cc(Cl)cc3c2S(=O)(=O)N(Cc2ccccc2)C(=O)N3Cc2ccccc2)CC1` [Example 1, 2,4-Dibenzyl-6-chloro-8-(4-methyl-piperazin-1-yl)-1,1-dioxo-1,4-dihydro-2H-1λ^6-benzo[1,2,4]thiadiazin-3-one]: the melting point lay in the range of 100 to 101 °C. For the same molecule, the IC50 at 5-HT7 stood at 6580 nM. In addition, the “rotarod ataxia / rotarod deficit (in words)” value with mice is on record as “did not show any rotarod ataxia”. In addition, the “median neurotoxic dose (TD50), rotarod” value in the data set on mice (ip) is “more than 300 □/□”. In addition, at 5-HT1a, the half-inhibitory concentration (IC50) is 997 nM. Further, the IC50 at hD3 receptor amounted to 633 nM. Also, the IC50 on hD4.2 receptor is greater than 10000 nM. Besides, the concentration for half-maximal inhibition (IC50) at hD2L receptor amounted to 5810 nM. For the same molecule, the IC50 on 5-HT2c came to 785 nM. Further, in the data set on rats [1], the “effect on PPI of compound alone vs vehicle control” value was “no significant effect”, the “mean startle amplitude vs apomorphine control group” value is “no significant differences” and the “reversal of disruption of PPI by apomorphine” value (shortened to “reversal of disruption of PPI”) is “reversed significantly”. For the same molecule, the IC50 in data set [2] (setting [11]) was determined as 1.9 nM. In addition, in data set [2] (setting [12]), the IC50 was 1.9 nM. The concentration for half-maximal inhibition (IC50) at 5-HT2a came to 354 nM. Moreover, on D1, the IC50 is 3050 nM.
`O=C1N(Cc2ccccc2)c2cc(Cl)cc(N3CCNCC3)c2S(=O)(=O)N1Cc1ccccc1` [Example 44, 2,4-Dibenzyl-6-chloro-1,1-dioxo-8-piperazin-1-yl-1,4-dihydro-2H-1λ^6-benzo[1,2,4]thiadiazin-3-one] came in with a melting point of 108 to 109 °C. On 5-HT7, the 50% inhibitory concentration (IC50) is greater than 10000 nM. The cytotoxicity result in data set [3] is “did not show any cytotoxicity”. In the data set on mice, the “TD50 relative to effective doses obtained in the PPI test” value is “about 8 times” and the “rotarod ataxia / rotarod deficit (in words)” value was “moderate rotarod deficit”. Besides, the concentration for half-maximal inhibition (IC50) on 5-HT1a was 5400 nM. At hD3 receptor, the IC50 came out at 1210 nM. The IC50 on hD4.2 receptor is greater than 10000 nM. The IC50 on hD2L receptor amounted to 667 nM. The IC50 at 5-HT2c came to 1880 nM. In the data set with rats [1], the “effect on PPI of compound alone vs vehicle control” value is “no significant effect”, the “mean startle amplitude vs apomorphine control group” value is on record as “no significant differences” and the “reversal of disruption of PPI” value is listed as “reversed significantly”. In addition, the concentration for half-maximal inhibition (IC50) in [2] (setting [11]) amounted to 1 nM. This molecule also gave a 50% inhibitory concentration (IC50) in data set [2] (setting [12]) of 0.9 nM. Further, half-maximal inhibition on 5-HT6 receptors [4] (IC50) required 67.8 nM. Besides, at 5-HT6 receptors [4] (FIG. 1), the “5-HT-induced increase in cAMP level inhibited (in words)” value is listed as “inhibited”. Also, on 5-HT6 receptors [4] (setting [13]), the inhibition at 0.001 µM was 0%, the inhibition at 0.01 µM stood at 8%, the inhibition at 0.1 µM is 63% and the inhibition at 1 µM turned out to be 100%. For the same molecule, the inhibition at 10 µM at 5-HT6 receptors [4] (setting [13]) stood at 100%. In addition, the IC50 on 5-HT2a amounted to 1160 nM. On D1, the IC50 was determined as 6390 nM.
With `COc1ccc2c(c1)c(CCN(C)C)cn2S(=O)(=O)c1ccccc1` [MS-245], on 5-HT6 receptors [5], the “pA2, antagonist” value is reported as 8.88.
Turning to `CNc1cc(NS(=O)(=O)c2ccc(N)cc2)nc(NC)n1` [Ro 04-6790], in the data set on rat, the anticonvulsant activity entry is listed as “possess anticonvulsant activity”. For the same molecule, in the data set on rats [6], the food intake result is “decreased food intake”.
In the case of `COc1ccc(NS(=O)(=O)c2sc3ccc(Cl)cc3c2C)cc1N1CCNCC1` [SB-271046, reference compound], in the data set on rat, the anticonvulsant activity result is given as “possess anticonvulsant activity”. In [7], the extracellular glutamate levels result is “increased extracellular glutamate levels in frontal cortex and dorsal hippocampus by several fold”. The “retention of a previously learned task in water maze” value in the data set on rats [8] is “significant improvement”. Further, the “reversal of disruption of PPI” value with rats [1] is recorded as “did not reverse”.
As to `COc1ccc(S(=O)(=O)Nc2cc(Br)cc(F)c2Br)cc1N1CCNCC1` [SB-357134], the “seizure threshold (rat maximal electroseizure threshold)” value in the data set on rat (oral administration) was “potent and dose-dependent increase”. Moreover, in data set [9], the “bioavailability (in words)” value is recorded as “excellent oral bioavailability” and the “blood clearance (in words)” value was “low clearance rate”. Also, in the data set with rats [8], the “retention of a previously learned task in water maze” value is listed as “significant improvement”.
Take `CN(C)CCCN1c2ccccc2Sc2ccc(Cl)cc21` [chlorpromazine]: on 5-HT6 receptors [10], the “binding affinity at 5-HT6 receptors (in words)” value is “high affinity”.
For the molecule `CN(C)CC/C=C1/c2ccccc2Sc2ccc(Cl)cc21` [chlorprothixene], the “binding affinity at 5-HT6 receptors (in words)” value on 5-HT6 receptors [10] was “high affinity”.
